Drawing on US20210315893A1 (Galapagos NV, priority 2017, published 2021), this text covers EC50 for 16 compounds.

Assay [1] deals with T1, S1PR2 (Homo sapiens, UniProt O95136).
T1 construct: expressed in transfected cells
The assay is described as follows: S1PR2 binding assay (competition with radioactively labeled S1P, SpA). The conditions noted are these: membranes from stable cell line over expressing S1PR2, SpA beads; read-out: S1P2 EC50 (nM), S1PR2 binding EC50. In outline:
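Scintillation proximity read-out after 2 h room-temperature incubation of compound, [3H]S1P and S1PR2-overexpressing cell membranes on WGA-coated beads. Buffer: 20 mM Tris pH 7.5, 100 mM NaCl, 10 mM MgCl2, 1 mM Na3VO4, 0.4% fatty-acid-free BSA; plates counted immediately after centrifugation.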

Assay [2] addresses T2, human GPCR sphingosine 1-phosphate receptor 2 (Homo sapiens, UniProt O95136).
T2 construct: host or cells: CHO
The assay is described as follows: S1PR2 antagonist Ca2+ flux assay. It counts as cell-based. The conditions noted are these: antagonist mode, CHO-S1PR2 cells, S1P at EC80, Ca2+ fluorescence; read-out: S1P2 EC50 (nM), S1P2 antagonist EC50. In outline: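 Antagonist mode: 15 min after compound addition, S1P (EC80) stimulates Fluo8-loaded, 1 h-starved CHO-S1PR2 cells, Ca2+ read over 3 min; a prior 3-min read checks compound agonism. EC50 from peak/baseline fluorescence ratio, normalised versus vehicle and S1P EC50 (antagonist) or EC100 (agonist).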
(Calcium flux is commonly read through the fluorescence of an indicator in the cells.)

In assay [3] the test system is HFL-1 cells. In words: IL-8 production assay (S1P induced IL-8). It counts as cell-based. The conditions noted are these: Homo sapiens, HFL1; S1P (1 μM) induced IL-8 in HFL-1 cells, starvation medium without HSA; read-out: IL8 EC50. In outline: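 HFL-1 fibroblasts in low-serum medium were pretreated 1 h with a 10-point 1/3 series of compound starting at 30 μM (0.3% DMSO).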

In assay [4] the target is T3, human GPCR sphingosine 1-phosphate receptor 1 (Homo sapiens, UniProt P21453).
T3 construct: host or cells: CHO
The assay is described as follows: S1PR1 selectivity Ca2+ flux assay (antagonist readout). The conditions noted are these: antagonist readout, CHO cells overexpressing human S1PR1 and Gq, S1P at EC80 (6 nM); read-out: S1P1 EC50 (nM), S1P1 antagonist EC50. It counts as cell-based. Summed up:
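Antagonist mode: S1P challenge follows 15 min compound preincubation at 37 °C. Cells are CHO stably expressing human S1PR1, serum-starved 1 h (0.1% FAF BSA), loaded with Fluo 8. Peak-over-baseline fluorescence ratio is normalized to positive/negative controls; IC50 from logistic curve fit.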

The test system of assay [5] is HFL-1 cells. In words: IL8 assay in the presence of Human Serum Albumin. Conditions: HFL1, read-out: HSA IL8 EC50.
Assay [6] deals with T4, human GPCR sphingosine 1-phosphate receptor 5 (Homo sapiens, UniProt Q9H228).
T4 construct: host or cells: CHO
In words: S1PR5 selectivity Ca2+ flux assay (antagonist readout). It is filed as cell-based. Conditions: CHO cells overexpressing human S1PR5 and Gq, agonist at EC80 (20 nM), read-out: S1P5 EC50 (nM), S1P5 antagonist EC50. Summed up:
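Antagonist readout: after 15 min compound preincubation at 37° C, human S1PR5/Gq CHO cells loaded with Fluo 8 dye received an EC80 challenge of S1PR5-specific agonist, and fluorescence was recorded for 3 min. Maximal-over-background ratios, normalized as % inhibition, gave IC50 by logistic fit.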

T4 sequence (Q9H228 whole entry): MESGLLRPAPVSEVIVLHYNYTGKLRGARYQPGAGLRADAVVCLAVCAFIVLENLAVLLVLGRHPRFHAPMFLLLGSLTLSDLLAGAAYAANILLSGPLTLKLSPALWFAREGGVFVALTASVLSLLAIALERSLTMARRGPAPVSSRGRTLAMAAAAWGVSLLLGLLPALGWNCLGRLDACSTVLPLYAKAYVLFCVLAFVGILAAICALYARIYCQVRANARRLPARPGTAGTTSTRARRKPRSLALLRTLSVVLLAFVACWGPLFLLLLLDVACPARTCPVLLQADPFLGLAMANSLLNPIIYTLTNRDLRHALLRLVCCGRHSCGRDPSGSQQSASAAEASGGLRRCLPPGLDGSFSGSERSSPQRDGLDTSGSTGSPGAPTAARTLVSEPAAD
T3 sequence (P21453 whole entry): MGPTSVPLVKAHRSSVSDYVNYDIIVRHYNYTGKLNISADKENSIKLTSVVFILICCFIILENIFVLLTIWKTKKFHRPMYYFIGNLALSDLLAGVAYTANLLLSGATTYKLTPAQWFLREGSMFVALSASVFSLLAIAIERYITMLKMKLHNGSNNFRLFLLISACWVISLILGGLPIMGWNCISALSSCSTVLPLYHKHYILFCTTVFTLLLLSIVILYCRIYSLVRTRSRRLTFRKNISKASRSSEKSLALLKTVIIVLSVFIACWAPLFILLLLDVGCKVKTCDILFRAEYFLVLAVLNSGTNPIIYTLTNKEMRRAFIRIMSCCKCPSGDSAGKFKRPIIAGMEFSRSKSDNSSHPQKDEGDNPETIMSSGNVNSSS
T1 sequence (O95136 whole entry): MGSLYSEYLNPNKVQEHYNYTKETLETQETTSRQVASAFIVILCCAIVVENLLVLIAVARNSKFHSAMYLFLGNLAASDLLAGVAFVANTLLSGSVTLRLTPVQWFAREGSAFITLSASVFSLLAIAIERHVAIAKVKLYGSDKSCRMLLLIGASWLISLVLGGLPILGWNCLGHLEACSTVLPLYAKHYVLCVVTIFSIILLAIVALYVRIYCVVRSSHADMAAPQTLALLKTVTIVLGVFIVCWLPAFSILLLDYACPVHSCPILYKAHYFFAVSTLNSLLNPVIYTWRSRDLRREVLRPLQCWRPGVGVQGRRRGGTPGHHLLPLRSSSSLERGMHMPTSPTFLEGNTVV
T2 sequence (O95136 whole entry): as above

As to `N#Cc1cc2[nH]c(Cc3nn(CC(=O)N4CCOCC4)c(=O)c4ccccc34)nc2cc1OCC(F)(F)F` [Compound 175, 2-[[3-(2-morpholino-2-oxo-ethyl)-4-oxo-phthalazin-1-yl]methyl]-6-(2,2,2-trifluoroethoxy)-3H-benzimidazole-5-carbonitrile], the EC50 is 78.9 nM in assay [1]; 11.4 nM in assay [2]; 10.9 nM in assay [3]; not below 19800 nM in assay [4]; 61.6 nM in assay [5]; 19800 nM in assay [6].
Regarding `N#Cc1cc2[nH]c(Cc3nn(C4CCNC4)c(=O)c4ccccc34)nc2cc1OCC(F)F` (stereo not drawn) [Compound 64, 6-(2,2-difluoroethoxy)-2-[(4-oxo-3-pyrrolidin-3-yl-phthalazin-1-yl)methyl]-3H-benzimidazole-5-carbonitrile], the EC50 in assay [1] was 131 nM; in assay [2], 137 nM; in assay [3], 25.6 nM; in assay [4], not below 19800 nM; in assay [5], 33.5 nM; in assay [6] it was 19800 nM.
In the case of `O=C(O)Cn1nc(Cc2nc3cc(Cl)c(OCC4CC4)cc3[nH]2)c2c(c1=O)CCCC2` [Compound 117, 2-[4-[[5-chloro-6-(cyclopropylmethoxy)-1H-benzimidazol-2-yl]methyl]-1-oxo-5,6,7,8-tetrahydrophthalazin-2-yl]acetic acid], the EC50 was determined as 33.2 nM in assay [1]; 8.18 nM in assay [2]; 0.96 nM in assay [3]; 1540 nM in assay [4]; 8.83 nM in assay [5]; 13200 nM in assay [6].
For the compound `N#Cc1cc2nc(Cc3nn(C4CC4)c(=O)c4ccccc34)[nH]c2cc1OCC1CC1` [Compound 42, 6-(cyclopropylmethoxy)-2-[(3-cyclopropyl-4-oxo-phthalazin-1-yl)methyl]-1H-benzimidazole-5-carbonitrile], the EC50 in assay [1] is 20.6 nM; in assay [2], 19.7 nM; in assay [3] it was 30.9 nM; in assay [4], not below 19800 nM; in assay [5], 443 nM; in assay [6], 19800 nM.
For the compound `O=c1c2ccccc2c(Cc2nc3cc(Cl)c(OC(F)(F)F)cc3[nH]2)nn1C1CCNC1` (stereo not drawn) [Compound 59, 4-[[6-chloro-5-(trifluoromethoxy)-1H-benzimidazol-2-yl]methyl]-2-pyrrolidin-3-yl-phthalazin-1-one], the EC50 is 42 nM in assay [1]; 94.4 nM in assay [2]; 98.8 nM in assay [3]; not below 19800 nM in assay [4]; 180 nM in assay [5]; 19800 nM in assay [6].
For the compound `CN(C)C1CCN(C(=O)Cn2nc(Cc3nc4cc(OCC(F)F)c(C#N)cc4[nH]3)c3ccccc3c2=O)C1` (stereo not drawn) [Compound 176, 6-(2,2-difluoroethoxy)-2-[[3-[2-[3-(dimethylamino)pyrrolidin-1-yl]-2-oxo-ethyl]-4-oxo-phthalazin-1-yl]methyl]-3H-benzimidazole-5-carbonitrile], the EC50 in assay [1] was 386 nM; in assay [2] it was 489 nM; in assay [3], 116 nM; in assay [4], not below 19800 nM; in assay [5], 618 nM; in assay [6], 19800 nM.
Turning to `CCOc1cc2[nH]c(Cc3nn(CC(=O)N4CCOCC4)c(=O)c4ccccc34)nc2cc1C(F)(F)F` [Compound 168, 4-[[6-ethoxy-5-(trifluoromethyl)-1H-benzimidazol-2-yl]methyl]-2-(2-morpholino-2-oxo-ethyl)phthalazin-1-one], the EC50 is 86.4 nM in assay [1]; 11.9 nM in assay [2]; 4.57 nM in assay [3]; not below 19800 nM in assay [4]; 28.1 nM in assay [5]; 19800 nM in assay [6].
Turning to `O=C(Cn1cc(Cc2nc3cc(OCC(F)F)c(Cl)cc3[nH]2)c2ccccc2c1=O)N1CCOCC1` [Compound 169, 4-[6-Chloro-5-(2,2-difluoro-ethoxy)-1H-benzoimidazol-2-ylmethyl]-2-(2-morpholin-4-yl-2-oxo-ethyl)-2H-isoquinolin-1-one], the EC50 in assay [1] is 375 nM; in assay [2] it was 19.9 nM; in assay [3], 48.7 nM; in assay [4] it was not below 19800 nM; in assay [5], 400 nM; in assay [6], 19800 nM.
With `O=C(O)Cn1cc(Cc2nc3cc(Cl)c(OCC(F)F)cc3[nH]2)c2ccccc2c1=O` [Compound 125, {4-[5-Chloro-6-(2,2-difluoro-ethoxy)-1H-benzoimidazol-2-ylmethyl]-1-oxo-1H-isoquinolin-2-yl}-acetic acid], the EC50 was 200 nM in assay [1]; 24.4 nM in assay [2]; 66.1 nM in assay [3]; not below 19800 nM in assay [4]; 1680 nM in assay [5]; 19800 nM in assay [6].
Turning to `N#Cc1cc2nn(Cc3nn(CC(=O)O)c(=O)c4ccccc34)cc2cc1OCC1CC1` [Compound 135, 2-[4-[[6-cyano-5-(cyclopropylmethoxy)indazol-2-yl]methyl]-1-oxo-phthalazin-2-yl]acetic acid], the EC50 was 178 nM in assay [1]; 37.5 nM in assay [2]; 24.3 nM in assay [3]; not below 19800 nM in assay [4]; 3460 nM in assay [5]; 19800 nM in assay [6].
Take `N#Cc1cc2nn(Cc3nn(CC(=O)N4CCOCC4)c(=O)c4ccccc34)cc2cc1OCC1CC1` [Compound 209]: the EC50 in assay [1] was 235 nM; in assay [2] it was 194 nM; in assay [3], 123 nM; in assay [4] it was not below 19800 nM; in assay [5], 382 nM; in assay [6] it was 19800 nM.
In the case of `O=C(Cc1nn(Cc2nc3cc(OCC4CC4)c(Br)cc3[nH]2)c2ccccc2c1=O)N1C[C@H](O)[C@@H](O)C1` [Compound 217, 1-[[6-bromo-5-(cyclopropylmethoxy)-1H-benzimidazol-2-yl]methyl]-3-[2-[(3S,4S)-3,4-dihydroxypyrrolidin-1-yl]-2-oxo-ethyl]cinnolin-4-one], the EC50 in assay [1] is 2.58 nM; in assay [2], 2.23 nM; in assay [3], 0.04 nM; in assay [4], 698 nM; in assay [5], 1.36 nM; in assay [6], 19800 nM.
Take `N#Cc1cc2nn(Cc3nn(CC(=O)O)c(=O)c4ccccc34)cc2cc1OCC(F)F` [compound 8, 2-[4-[[6-cyano-5-(2,2-difluoro-ethoxy)indazol-2-yl]methyl]-1-oxo-phthalazin-2-yl]acetic acid]: the EC50 is 2490 nM in assay [1]; 10700 nM in assay [2]; 610 nM in assay [3]; not below 19800 nM in assay [4]; 9950 nM in assay [5]; 19800 nM in assay [6].
`N#Cc1cc2[nH]c(Cc3nn(C4CN(CC(=O)O)C4)c(=O)c4ccccc34)nc2cc1OCC(F)F` [Compound 69, 2-[3-[4-[[6-cyano-5-(2,2-difluoroethoxy)-1H-benzimidazol-2-yl]-methyl]-1-oxo-phthalazin-2-yl]azetidin-1-yl]acetic acid]: the EC50 in assay [1] is 272 nM; in assay [2], 238 nM; in assay [3] it was 109 nM; in assay [4], not below 19800 nM; in assay [5], 96.3 nM; in assay [6] it was 19800 nM.
Take `CC(F)(F)COc1cc2nc(Cc3nn(CC(=O)N4CCOCC4)c(=O)c4ccccc34)[nH]c2cc1C#N` [Compound 52, 6-(2,2-difluoropropoxy)-2-[[3-(2-morpholino-2-oxo-ethyl)-4-oxo-phthalazin-1-yl]methyl]-3H-benzimidazole-5-carbonitrile]: the EC50 is 105 nM in assay [1]; 11.6 nM in assay [2]; 46.7 nM in assay [3]; not below 19800 nM in assay [4]; 50 nM in assay [5]; 19800 nM in assay [6].
Consider `N#CC1(COc2cc3[nH]c(Cc4nn(CC(=O)N5CCOCC5)c(=O)c5ccccc45)nc3cc2Cl)CC1` [Compound 161, 1-[[6-chloro-2-[[3-(2-morpholino-2-oxo-ethyl)-4-oxo-phthalazin-1-yl]methyl]-3H-benzimidazol-5-yl)oxymethyl]cyclopropanecarbonitrile], for which the EC50 was 154 nM in assay [1]; 15.6 nM in assay [2]; 47.4 nM in assay [3]; not below 19800 nM in assay [4]; 108 nM in assay [5]; 19800 nM in assay [6].

What is called EC50 is the midpoint of the concentration-response curve.
